Assay results as given in PubChem BioAssay AID2060487 (Molecular Pharmacology Branch, DTP, NCI, 2025).
Values joined by “and” are separate entries in the source; they are usually repeats but may differ in a detail not shown here. Equal values may be shown once.

System: 997537-175-T-J1-PDC complex spheroid viability
Experiment: Anticancer human tumor 997537-175-T-J1-PDC patient-derived colon adenocarcinoma cell line growth inhibition [GQUAD]
Conditions: for viability, T/C: stronger effect = lower value
Description: DNA G-quadruplex Stabilizer Agents in Combinations in Complex Spheroids
A high-throughput screen of multi-cell type tumor spheroids was designed to identify active combinations of DNA G-quadruplex stabilizer agents and targeted small molecules. Complex spheroids include a stromal component modeled by human endothelial cells (HUVEC) and fibroblasts modeled by human mesenchymal stem cells (MSCs). The concentration ranges selected for each drug and investigational agent were based upon clinically achievable concentrations if the clinical Cmax of the agent was known.
Compounds. The drugs and investigational agents: pidnarulex (CX-5461; NSC782164), APTO-253 (NSC789042), BRACO-19 (NSC847499), peposertib (NSC802822), ceralasertib (NSC780249), elimusertib (NSC800525), camonsertib (NSC841442), AZD-1390 (NSC803789), olaparib (NSC753686), talazoparib (NSC767125), ART-558 (NSC835418), sotorasib (NSC818433), MRTX-1133 (NSC836407), SN-38 (NSC673596), topotecan (NSC609699), etoposide (NSC141540), doxorubicin (NSC123127), gemcitabine (NSC613327), 5-fluorouracil (NSC19893), paclitaxel (NSC125973), vemurafenib (NSC761431), panobinostat (NSC761190), R-306465 (JNJ-16241199; NSC773264), adavosertib (NSC754352), TP-3654 (NSC805149), carboplatin (NSC241240), KSQ-4279 (NSC840948), and staurosporine (NSC755774) were obtained from the National Cancer Institute (NCI) Developmental Therapeutics Program Chemical Repository (34). The FDA-approved anticancer drug set is available from the NCI Developmental Therapeutics Program. […] The stock solutions were prepared in dimethyl sulfoxide (DMSO, Sigma-Aldrich, St. Louis, MO, cat. D2650) at 800-fold the tested concentration and stored at -70 degrees C prior to their use. All drugs and investigational agents were tested over a range starting from a high concentration at or near the clinical Cmax and decreasing in half-log increments. If the clinical Cmax for an agent had not been determined, the highest concentration tested was 10 microM.
2.3 Cell Culture. All cells were maintained in an incubator at 37 degrees C and 5% CO2 with 95% humidity. The PDC lines were cultured according to standard operating procedures established by the NCI PDMR. All PDCs were thawed and cultured in Matrigel-coated flasks prepared with a working solution of 1X Ham's F-12 nutrient mix, without supplementation (Invitrogen, cat. 11765054), 100 U/mL penicillin-streptomycin (Invitrogen, cat. 15140122), and 2.5% Matrigel (Corning Inc., cat. 354248) for the first three passages. The 857933-349-R-J2-PDC line was cultured in 6C/Colon 1B media, which includes advanced DMEM/F-12 (Thermo Fisher Scientific, cat. 12634028), 10 mM HEPES (Thermo Fisher Scientific, cat. 15630080), 1X GlutaMAX supplement (Thermo Fisher Scientific, cat. 35050061), 0.1 mg/mL primocin (InvivoGen, cat. ant-pm-2), 10% defined fetal bovine serum, heat inactivated (HyClone Laboratories Inc., cat. SH30070.03HI), 50% L-WRN conditioned media (ATCC, cat. CRL-3276), 1.25 mM N-Acetyl-L-cysteine (Sigma-Aldrich, cat. A9165), 10 mM nicotinamide (Sigma-Aldrich, cat. N0636), 1X B-27 supplement (Thermo Fisher Scientific, cat. 17504044), 1X N-2 supplement (Thermo Fisher Scientific, cat. 17502048), 10 microM Y-27632 dihydrochloride (Tocris Bioscience, cat. 1254), and 50 ng/mL human EGF recombinant protein (Thermo Fisher Scientific, cat. PHG0311). The 485176-168-R4-J1-PDC line was cultured in Panc media, which includes all 6C/Colon 1B media components plus 100 ng/mL human FGF-10 (Thermo Fisher Scientific, cat. 100-26), 500 nM SB-431542 (Selleckchem, cat. S1067), and gastrin (Tocris, cat. 3006).
[…]
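Also: spheroids exposed to the agents for 7 days.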
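For viability, T/C in this document: 100% = DMSO vehicle control viability.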

## C#Cc1c(F)ccc2cc(O)cc(-c3ncc4c(N5CC6CCC(C5)N6)nc(OCC56CCCN5CC(F)C6)nc4c3F)c12 (stereo not drawn) + Cc1cnc(CNC(=O)c2c(=O)c3ccc(N4CCCN(C)CC4)nc3n3c2sc2ccccc23)cn1
Curve of first compound, second compound 0.0316 µM
  IC50: > 10 µM
Curve of first compound, second compound 0.1 µM
  IC50: > 10 µM
Curve of first compound, second compound 0.316 µM
  IC50: > 10 µM
Curve of first compound, second compound 1 µM
  IC50: > 10 µM
Curve of first compound, second compound 3.16 µM
  IC50: > 10 µM
Curve of first compound, second compound 10 µM
  IC50: > 10 µM
Second compound 0.0316 µM, first compound 0.0316 µM
  viability, T/C: 102%
Second compound 0.0316 µM, first compound 0.1 µM
  viability, T/C: 85.6%
Second compound 0.0316 µM, first compound 0.316 µM
  viability, T/C: 101%
Second compound 0.0316 µM, first compound 1 µM
  viability, T/C: 74.9%
Second compound 0.0316 µM, first compound 3.16 µM
  viability, T/C: 75.7%
Second compound 0.0316 µM, first compound 10 µM
  viability, T/C: 111%
Second compound 0.1 µM, first compound 0.0316 µM
  viability, T/C: 92.2%
Second compound 0.1 µM, first compound 0.1 µM
  viability, T/C: 90.2%
Second compound 0.1 µM, first compound 0.316 µM
  viability, T/C: 101%
Second compound 0.1 µM, first compound 1 µM
  viability, T/C: 80.8%
Second compound 0.1 µM, first compound 3.16 µM
  viability, T/C: 104%
Second compound 0.1 µM, first compound 10 µM
  viability, T/C: 109%
Second compound 0.316 µM, first compound 0.0316 µM
  viability, T/C: 83.4%
Second compound 0.316 µM, first compound 0.1 µM
  viability, T/C: 83.6%
Second compound 0.316 µM, first compound 0.316 µM
  viability, T/C: 92.1%
Second compound 0.316 µM, first compound 1 µM
  viability, T/C: 97.3%
Second compound 0.316 µM, first compound 3.16 µM
  viability, T/C: 79.9%
Second compound 0.316 µM, first compound 10 µM
  viability, T/C: 108%
Second compound 1 µM, first compound 0.0316 µM
  viability, T/C: 72.3%
Second compound 1 µM, first compound 0.1 µM
  viability, T/C: 101%
Second compound 1 µM, first compound 0.316 µM
  viability, T/C: 85%
Second compound 1 µM, first compound 1 µM
  viability, T/C: 98%
Second compound 1 µM, first compound 3.16 µM
  viability, T/C: 105%
Second compound 1 µM, first compound 10 µM
  viability, T/C: 113%
Second compound 3.16 µM, first compound 0.0316 µM
  viability, T/C: 91.2%
Second compound 3.16 µM, first compound 0.1 µM
  viability, T/C: 108%
Second compound 3.16 µM, first compound 0.316 µM
  viability, T/C: 95.2%
Second compound 3.16 µM, first compound 1 µM
  viability, T/C: 99.1%
Second compound 3.16 µM, first compound 3.16 µM
  viability, T/C: 96.3%
Second compound 3.16 µM, first compound 10 µM
  viability, T/C: 106%
Second compound 10 µM, first compound 0.0316 µM
  viability, T/C: 77%
Second compound 10 µM, first compound 0.1 µM
  viability, T/C: 100%
Second compound 10 µM, first compound 0.316 µM
  viability, T/C: 93.1%
Second compound 10 µM, first compound 1 µM
  viability, T/C: 97.9%
Second compound 10 µM, first compound 3.16 µM
  viability, T/C: 127%
Second compound 10 µM, first compound 10 µM
  viability, T/C: 110%

## CC1COCCN1c1cc(-c2ccnn2C)c2ccnc(-c3ccn[nH]3)c2n1 (stereo not drawn)
Compound 0.0316 µM
  viability, T/C: 80.4% and 95.8% and 90.8%
Compound 0.1 µM
  viability, T/C: 67.5% and 75.7% and 62.5%
Compound 0.316 µM
  viability, T/C: 46% and 65.2% and 33.9%
Compound 1 µM
  viability, T/C: 61% and 40% and 50%
Compound 3.16 µM
  viability, T/C: 58% and 48.9% and 43.1%
Compound 10 µM
  viability, T/C: 36.4% and 43.5% and 49.4%
Curve of compound
  IC50: 1.75 µM and 0.846 µM and 0.219 µM

## C=CC(=O)N1CCN(c2nc(=O)n(-c3c(C)ccnc3C(C)C)c3nc(-c4c(O)cccc4F)c(F)cc23)C(C)C1 (stereo not drawn)
Compound 0.0316 µM
  viability, T/C: 72.9% and 96.6% and 86.9%
Compound 0.1 µM
  viability, T/C: 72.7% and 83.5% and 95.8%
Compound 0.316 µM
  viability, T/C: 86.5% and 87.9% and 93.8%
Compound 1 µM
  viability, T/C: 92.2% and 77.4% and 73%
Compound 3.16 µM
  viability, T/C: 95.7% and 79.1% and 71.7%
Compound 10 µM
  viability, T/C: 94.6% and 94.1% and 90%
Curve of compound
  IC50: > 10 µM

## COc1ncnc(C2CC2)c1-c1ncc2cnn(Cc3ccc(-c4nc(C(F)(F)F)cn4C(C)C)cc3)c2n1
Compound 0.0316 µM
  viability, T/C: 108% and 102% and 88.2%
Compound 0.1 µM
  viability, T/C: 74.8% and 112% and 95%
Compound 0.316 µM
  viability, T/C: 108% and 90.8% and 83.2%
Compound 1 µM
  viability, T/C: 75.4% and 97.9% and 84.9%
Compound 3.16 µM
  viability, T/C: 82.6% and 103% and 75.4%
Compound 10 µM
  viability, T/C: 80.2% and 58% and 77.7%
Curve of compound
  IC50: > 10 µM
